The results in this text go back to ChEMBL document CHEMBL1201862, “PubChem BioAssay data set” (2004).

Test systems include BT-549; DMS-114; KM-20L2; LXFL 529; DLD-1; XF498; SNB-78; HOP-18.
Holding throughout (test): DTP human tumour cell line panel, 48 h

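Tested at 5 concentrations; 48 h exposure; 96-well plates; endpoints linearly interpolated, else capped at highest concentration. GI50: concentration for 50% inhibition of growth.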 The source made the active and inactive calls. Rule as the data show it: active = GI50 up to about 1.1 µM and inactive = higher. Non-standard residues stand in square brackets, D forms with d. Residues, ends and D or L forms follow the SMILES beside them.

Regarding `COc1ccc(N2C(=O)/C(=C\c3ccccc3)SC2c2cc(OC)c(OC)c(OC)c2)cc1` (centres undefined), the GI50 (as a rule, the concentration at which growth is held to half of that of the control) with BT-549 is > 100 µM (inactive).
Turning to `CCOc1ccc(NC(=O)CC2SC(N)=NC2=O)cc1` (centres undefined), the GI50 in the assay with DMS-114, in the assay with KM-20L2, in the assay on LXFL 529, in the assay with DLD-1, with XF498 and with SNB-78 was > 100 µM (inactive) throughout.
`CCOC(=O)c1cc2c(ccc3cc(C(=O)OCC)[nH]c32)[nH]1`: the GI50 with BT-549 was 52.6 µM (inactive).
On the same count and under the same terms, the figure for `CC(C)NC(=O)OCc1c(COC(=O)NC(C)C)n(C)c2c1ccc1sccc12` is 2.96 µM (inactive); for `O=c1[nH]c2ccsc2c(=O)n1COCc1ccccc1` it is > 100 µM (inactive).
`Cc1ccc(NC=O)c(-c2c(N)[nH]c(=S)[nH]c2=O)c1`: in the assay on BT-549, the GI50 is > 100 µM (inactive).
With `O=C1c2ccccc2C(=O)N1c1ccc(Cc2ccc(N3C(=O)c4ccccc4C3=O)cc2)cc1`, in the assay with BT-549, the GI50 is > 100 µM (inactive).
Consider `COc1ccc(C2SCC(=O)N2NC(=O)c2ccc(NC(C)=O)cc2)c(OC)c1` (centres undefined), for which the GI50 with BT-549 is > 100 µM (inactive).
As for `CCNC(C)Cc1ccccc1` (centres undefined), the GI50 with DMS-114, with KM-20L2, with LXFL 529, in the assay on DLD-1, in the assay with SNB-78 and in the assay with HOP-18 was > 100 µM (inactive) in each case.
With `CC(=O)OC12c3ccccc3C1CCCC21OCCCO1` (centres undefined), the GI50 in the assay on DMS-114, with KM-20L2, in the assay with LXFL 529, in the assay with DLD-1, in the assay on SNB-78 and in the assay with HOP-18 was > 100 µM (inactive) throughout.
As to `CCC1(C(=O)OC(C)(C)C)OC12C(C)CCCC2C` (centres undefined), the GI50 with BT-549 is > 100 µM (inactive).
Still for that read-out and setting: the figure for `C/C(=C\COc1ccc2ccc(=O)oc2c1)CCC(=O)C(C)(C)O` is 18.1 µM (inactive).
For the compound `COc1ccc(/C=N/n2cnc3c(c2=O)S/C(=C2/SC(=S)N(c4ccc(C)cc4)C2=O)N3c2ccccc2)cc1`, the GI50 in the assay with DMS-114 is 74.5 µM (inactive); with KM-20L2, > 100 µM (inactive); in the assay with LXFL 529, > 100 µM (inactive).
Take `COc1cc(C[C@@]2(C)[C@@H]3CCC[C@H](CO)[C@@]3(C)CC[C@@H]2C)c(Cl)c(OC)c1`: the GI50 in the assay on BT-549 was 17.6 µM (inactive).
In the case of `O=C(NCCCCCCNCc1cccc2ccccc12)Nc1cccc2ccccc12`, in the assay on BT-549, the GI50 is > 100 µM (inactive).
In the case of `COC(=O)c1s/c(=N\C(=S)N(C)C)n(-c2ccc(Cl)cc2)c1C(=O)OC`, the GI50 in the assay on KM-20L2 and with SNB-78 was > 100 µM (inactive) each time.
With `O=[N+]([O-])/C=C/c1c(Cl)cccc1Cl`, the GI50 with BT-549 was 2.01 µM (inactive).
Turning to `CC1NC(=O)CC(c2ccccc2)N(N=O)C1c1ccccc1` (centres undefined), the GI50 with KM-20L2 is 21.4 µM (inactive); in the assay with DLD-1, 44.8 µM (inactive); with XF498 it was 25.8 µM (inactive); with SNB-78, 35.4 µM (inactive); with HOP-18, 52.2 µM (inactive).
For `CN(/N=C/c1cccc2cccnc12)c1ccccc1`, the GI50 is > 100 µM (inactive) with DMS-114; > 100 µM (inactive) in the assay with KM-20L2; 89.3 µM (inactive) with LXFL 529; > 100 µM (inactive) in the assay on DLD-1; > 100 µM (inactive) with XF498; > 100 µM (inactive) in the assay with SNB-78. Besides, the GI50 in the assay on HOP-18 is > 100 µM (inactive).
Take `CCN(CC)C(=S)SS(=O)(=O)c1cccc(N)c1`: in the assay with BT-549, the GI50 is > 100 µM (inactive).
Take `CS(=O)(=O)N1CC(CCl)c2ccc(O)cc21` (centres undefined): the GI50 in the assay with BT-549 is 2.02 µM (inactive).
In the case of `COc1c(O)cc2c(c1O)C(=O)/C(=C/c1ccc(O)cc1)CO2`, in the assay with BT-549, the GI50 is 32.9 µM (inactive).
As for `Cc1ccc(C2=Nn3c(nc4sc(-c5ccccc5)cc4c3=O)SC2)cc1`, the GI50 in the assay on BT-549 is > 100 µM (inactive).
`Cc1ccc2c(c1)[n+]([O-])c(N)n[n+]2[O-]`: in the assay on BT-549, the GI50 is > 100 µM (inactive).
On the same count and under the same terms, the figure for `O=C(N/N=C\c1cccc(O)c1)c1ccncc1` is > 100 µM (inactive); for `Oc1ccc(-c2nc3ccc(Br)cc3s2)cc1` it is 18.1 µM (inactive); for `CC1=CC(=O)/C(=C/NC(=S)c2ccncc2)C(=O)O1` it is > 100 µM (inactive).
Regarding `CC(C)C[C@H](NC(=O)[C@H](CC(C)C)NC(=O)[C@@H](Cc1c[nH]c2ccccc12)NC(=O)[C@H](Cc1ccccc1)NC(=O)[C@@H](Cc1c[nH]c2ccccc12)NC(=O)[C@H](CCC(N)=O)NC(=O)[C@H](CCC(N)=O)NC(=O)[C@H]1CCCN1C(=O)[C@@H](N)CCCCN)C(N)=O` (H-K[dP]QQ[dW]F[dW]LL-NH2), the GI50 in the assay with KM-20L2, in the assay with DLD-1, in the assay on XF498, in the assay on SNB-78 and in the assay with HOP-18 was > 100 µM (inactive) each time.
As to `CN(C)CCCNC(=O)c1cn2c(ccc3sc4ccccc4c(=O)c32)n1`, the GI50 with BT-549 is 18.5 µM (inactive).
Regarding `O=C1NC(=O)C2C(=O)NC(=O)C1C2(c1ccccc1)c1ccc(Cl)cc1` (centres undefined), the GI50 in the assay on KM-20L2, in the assay on LXFL 529, in the assay on DLD-1, in the assay on XF498 and in the assay with SNB-78 was > 100 µM (inactive) in each case.
With `CC1OC2OC3C(OCC(O)C3O)OC(=O)[C@]34CCC(C)(C)CC3C3=CCC5[C@@]6(C)C[C@H](O)[C@H](OC7OC(CO)C(O)C(O)C7OC7OCC(OC(=O)CC(C)(O)CC(=O)OC1C(O)C2O)C(O)C7O)[C@@](C)(CO)C6CC[C@@]5(C)[C@]3(C)CC4` (some centres undefined), the GI50 in the assay with BT-549 is 10.2 µM (inactive).
With `CCC1C(=O)OCc2c1cc1n(c2=O)C(CC)c2c-1nc1ccccc1c2Cl` (centres undefined), the GI50 was 31.3 µM (inactive) with KM-20L2; 25.9 µM (inactive) in the assay with LXFL 529; 35.2 µM (inactive) in the assay with DLD-1; 24.8 µM (inactive) with XF498; 25.6 µM (inactive) with SNB-78; 20.3 µM (inactive) with HOP-18.
On to `CC(=O)OCC1OC(n2cc([N+](=O)[O-])c(=O)[nH]c2=O)C(OC(C)=O)C(OC(C)=O)C1OC(C)=O` (centres undefined), for which the GI50 is > 100 µM (inactive) in the assay on DMS-114; > 100 µM (inactive) with KM-20L2; > 100 µM (inactive) with LXFL 529; > 100 µM (inactive) with DLD-1; > 100 µM (inactive) in the assay with XF498; 43.2 µM (inactive) in the assay with HOP-18.
For the compound `CN/N=C(/Cc1occc(=O)c1O)C(=O)Nc1ccc(C)c(C)c1`, the GI50 is > 100 µM (inactive) in the assay on DMS-114, > 100 µM (inactive) in the assay on KM-20L2, > 100 µM (inactive) in the assay on LXFL 529 and 60.1 µM (inactive) in the assay on SNB-78.
With `C=C1c2nc3ccccc3n2C=C(c2ccc(OC)cc2)N1c1ccc(OCCN2CCCCC2)cc1`, the GI50 in the assay on BT-549 was 11.7 µM (inactive).
Same read-out and setting: the figure for `CCOC(=O)c1cc2c([nH]1)c(O)cc1c2ccn1Cc1ccccc1` is 17.8 µM (inactive).
As to `CC(=O)NC1=C(OS(=O)(=O)c2ccc(C)cc2)CN(C)C1=O`, the GI50 in the assay with BT-549 was 3.09 µM (inactive).
As for `C#C/C=C\CCCC/C=C\C#CC#CCCCC#CC#C[C@H](COS(=O)(=O)O)OS(=O)(=O)O`, in the assay with BT-549, the GI50 was > 100 µM (inactive).
On to `O=C1CCSSCCC(=O)NCCN1`, for which, in the assay with BT-549, the GI50 was > 100 µM (inactive).
For the compound `CC(=O)c1c(-c2cccc3ccccc23)c(C#N)c(=S)n(C2OC(CO)C(O)C(O)C2O)c1C` (centres undefined), in the assay with BT-549, the GI50 is > 100 µM (inactive).
On to `CN(Cc1ccccc1)C(=NC#N)N(C)Cc1ccccc1`, for which the GI50 in the assay on KM-20L2, with LXFL 529, in the assay on DLD-1 and in the assay with SNB-78 was > 100 µM (inactive) throughout.
As to `COc1ccc(CC2COc3cc(OC)cc(OC)c3C2=O)cc1` (centres undefined), in the assay on BT-549, the GI50 is 44.2 µM (inactive).
Take `O=C1C(c2ccc([N+](=O)[O-])cc2)=C(Cl)C(=O)c2c(O)cccc21`: the GI50 in the assay on DMS-114 is 7.31 µM (inactive); with LXFL 529, 9.51 µM (inactive); with BT-549, 17.1 µM (inactive); in the assay with DLD-1 it was 11 µM (inactive); in the assay with XF498, 10.6 µM (inactive); in the assay on SNB-78, 25.5 µM (inactive). Also, in the assay with HOP-18, the GI50 is 5.05 µM (inactive).
Regarding `COC(=O)CC1CN(C(=O)OCc2ccccc2)C(C)(C)O1` (centres undefined), the GI50 with BT-549 was 4.97 µM (inactive).
As for `CC(=O)N/C=C/c1cc(O)ccc1O`, the GI50 in the assay on KM-20L2 is 40.8 µM (inactive); in the assay on LXFL 529, 12.7 µM (inactive); in the assay with DLD-1, 27.2 µM (inactive); in the assay with XF498, 18.1 µM (inactive); in the assay on SNB-78, > 47.8 µM (inactive); in the assay with HOP-18, 16.4 µM (inactive).
For the compound `CN(/N=C/c1ccc(OCc2cccc(COc3ccc(C=O)cc3)n2)cc1)c1cnn(-c2ccc(Cl)cc2Cl)c(=O)c1Cl`, the GI50 in the assay with BT-549 was 66.7 µM (inactive).
For the compound `CCOC(=O)c1nc2ccccc2nc1Oc1ccc(OC)cc1`, the GI50 in the assay on BT-549 was > 100 µM (inactive).
As for `N#Cc1ccccc1NC(=O)C(=O)c1c(O)c2ccccc2oc1=O`, in the assay with BT-549, the GI50 was > 100 µM (inactive).
The same measure, in the same setting: the figure for `COc1cccc(/C=N/NC(=O)CN(C)C)c1O` is > 100 µM (inactive).
As to `Nc1nc(N)c2c(Cl)c(CNc3ccc(C(=O)NC(CC(=O)O)C(=O)O)cc3)ccc2n1` (centres undefined), the GI50 with BT-549 is < 0.01 µM (active).
For `C[N+](C)(C)C.FC(F)(F)C1(C(F)(F)F)O[SiH-]2(OC(C(F)(F)F)(C(F)(F)F)c3ccccc32)c2ccccc21`, the GI50 in the assay on DMS-114 was 14.1 µM (inactive); with KM-20L2, 5.24 µM (inactive); in the assay with LXFL 529, 12.6 µM (inactive); in the assay on SNB-78, 13.2 µM (inactive); with HOP-18 it was 36.9 µM (inactive).
Consider `CN(C)CCNc1c2ccccc2c2c3c(cccc13)C(=O)N(CCN(C)C)C2=O`, for which the GI50 in the assay with KM-20L2 was 0.103 µM (active); in the assay with DLD-1 it was 0.0578 µM (active); in the assay on XF498 it was 0.267 µM (active); with SNB-78, 0.151 µM (active); in the assay on HOP-18, 0.188 µM (active).
In the case of `COc1cc2c3c(c4cc(OC)c(OC)cc4c2cc1OC)C(=O)C1CCC(=O)N1C3` (centres undefined), in the assay with BT-549, the GI50 was 14.8 µM (inactive).
For `CCCCN1C(=O)CS/C1=N/Nc1nc2c([nH]1)c(=O)n(C)c(=O)n2C`, the GI50 in the assay with BT-549 was > 100 µM (inactive).
In the case of `N[C@@H]1C[C@H](N)c2c(Cl)sc(Cl)c21`, the GI50 with BT-549 is > 100 µM (inactive).
With `CN(Cc1cccc2ccccc12)Cc1cccc2ccccc12`, the GI50 in the assay with BT-549 was 56.4 µM (inactive).
Same read-out and setting: the figure for `N[C@@H]1c2c(Br)sc(Br)c2[C@H](O)[C@@H]1O` is > 100 µM (inactive); for `NC(=O)N/N=C1/CCC(O)CC1CC(=O)O` (centres undefined) it is > 100 µM (inactive).
